In US8012987B2, “Indolo[2,1-b] quinazole-6,12-dione antimalarial compounds and methods of treating malaria therewith” (The United States of America as represented by the …, priority 1998, dated 2011):
Converted amounts (≈) assume the structure as drawn. “And” between values parts separate entries of the source, which are not always exact repeats. Identical values can stand only once. Like-named read-outs stand apart in the source and are kept apart here.

Assays:
Type in all cases: cell-based
[1] = test system: Plasmodium falciparum clone Thai TM90C2B; assay: In vitro inhibition of [3H]hypoxanthine uptake, P. falciparum TM90C2B; details: values without parentheses: blood serum (footnote: blood plasma) replacing Albumax; for IC50: Plasmodium falciparum, TM90C2B
Experimental: (§1) The in vitro assays were conducted by using a modification of the semiautomated microdilution technique of Desjardins et al.^11 and Chulay et al.^12 Two strains of Plasmodium falciparum clones, from CDC Indochina III (W-2), CDC Sierra Leone I (D-6). […] They were derived by direct visualization and micromanipulation from patient isolates.^13 Test compounds were initially dissolved in DMSO and diluted 400-fold in RPMI 1640 culture medium supplemented with 25 mM Hepes, 32 mM HaHCO3, and 10% Albumax I® (GIBCO BRL, Grand Island, N.Y.). These solutions were subsequently serially diluted 2-fold with a Biomek 1000® (Beckman, Fullerton, Calif.) over 11 different concentrations. The parasites were exposed to serial dilutions of each compound for 48 h and incubated at 37° C. with 5% O2, 5% CO2, and 90% N2 prior to the addition of [^3H]hypoxanthine. After a further incubation of 18 h, parasite DNA was harvested from each microtiter well using Packard Filtermate 196 Harvester® (Meriden, Conn.) onto glass filters. Uptake of [^3H]hypoxanthine was measured with a Packard Topcount scintillation counter. […] This procedure was repeated with the test compounds initially dissolved in DMSO and diluted 400-fold in RPMI 1640 culture medium supplemented with 25 mM Hepes, 32 mM HaHCO3, and with blood serum replacing the 10% Albumax I® (see Table 1, figures without parentheses). The values without parentheses indicate culture in blood serum which more closely resemble conditions in a living animal.
(§2) Four strains of Plasmodium falciparum clones, from CDC Indochina III (W-2), CDC Sierra Leone I (D-6), Thai WR75-TM9, and Thai TM90C2B were utilized in susceptibility testing and the IC50 results appear in Table 1.

[2] = test system: Plasmodium falciparum clone CDC Indochina III (W-2); assay: In vitro inhibition of [3H]hypoxanthine uptake, P. falciparum W-2 clone; details: for IC50: Plasmodium falciparum, read-out: IC50 (W-2)
Experimental: (§3) The in vitro assays were conducted by using a modification of the semiautomated microdilution technique of Desjardins et al.^11 and Chulay et al.^12 Two strains of Plasmodium falciparum clones, from CDC Indochina III (W-2), CDC Sierra Leone I (D-6). […] These solutions were subsequently serially diluted 2-fold with a Biomek 1000® (Beckman, Fullerton, Calif.) over 11 different concentrations. The parasites were exposed to serial dilutions of each compound for 48 h and incubated at 37° C. with 5% O2, 5% CO2, and 90% N2 prior to the addition of [^3H]hypoxanthine. […] Uptake of [^3H]hypoxanthine was measured with a Packard Topcount scintillation counter. […] The values without parentheses indicate culture in blood serum which more closely resemble conditions in a living animal.
(§4) The numbers associated with both W2 and D6 refer to IC50 values and the units are ng/ml.

[3] = test system: Plasmodium falciparum clone CDC Sierra Leone I (D-6); assay: In vitro inhibition of [3H]hypoxanthine uptake, P. falciparum D-6 clone; details: for IC50: Plasmodium falciparum, read-out: IC50 (D-6)
Experimental: as §3, §4

[4] = test system: Plasmodium falciparum clone Thai WR75-TM9; assay: In vitro inhibition of [3H]hypoxanthine uptake, P. falciparum WR75-TM9; details: values without parentheses: blood serum (footnote: blood plasma) replacing Albumax; for IC50: Plasmodium falciparum
Experimental: as §1, §2

Plasmodium falciparum = assay: In vitro antimalarial activity against Plasmodium falciparum (strain not given); details: judged from the IC50 values of Table 1
Experimental: as §1, §2

[5] = values in parentheses: culture medium with 10% Albumax I
[6] = values without parentheses: blood serum (footnote: blood plasma) replacing Albumax

SMILES	IC50 [1]	IC50 [2, 5]	IC50 [2, 6]	IC50 [3, 5]	IC50 [3, 6]	IC50 [4]	effectiveness in treating/reducing malaria parasites as shown in Table 1 (Plasmodium falciparum)	IC50 (WR75-TM9) [4]	IC50 (TM90C2B) [1]	IC50 (W-2) [2, 6]	IC50 (D-6) [3, 6]
O=C1c2cc(F)ccc2N2C(=O)c3ccccc3NC12 (stereo not drawn) [Example 4]	29.8 ng/mL (≈ 0.111 µM)	2.33 ng/mL (≈ 0.00869 µM)	15.3 ng/mL (≈ 0.0572 µM)	4.07 ng/mL (≈ 0.0152 µM)	18.9 ng/mL (≈ 0.0704 µM)						
O=C1c2cc(C3CCCCC3)ccc2-n2c1nc1ccncc1c2=O [Example 74]	42.5 ng/mL (≈ 0.128 µM)	3.52 ng/mL (≈ 0.0106 µM)	59.8 ng/mL (≈ 0.181 µM)	2.19 ng/mL (≈ 0.00661 µM)	79.6 ng/mL (≈ 0.24 µM)	127 ng/mL (≈ 0.384 µM)					
CCc1ccc2c(c1)C(=O)c1nc3ccncc3c(=O)n1-2 [Example 83]	12.9 ng/mL (≈ 0.0464 µM)	1.8 ng/mL (≈ 0.00649 µM)	7.19 ng/mL (≈ 0.0259 µM)	3.11 ng/mL (≈ 0.0112 µM)	15.1 ng/mL (≈ 0.0546 µM)	25.7 ng/mL (≈ 0.0927 µM)					
COC(OC)c1ccc2c(c1)C(=O)c1nc3ccncc3c(=O)n1-2 [Example 70]	11 ng/mL (≈ 0.034 µM)	8.69 ng/mL (≈ 0.0269 µM)	6.1 ng/mL (≈ 0.0189 µM)	13.2 ng/mL (≈ 0.0409 µM)		24.4 ng/mL (≈ 0.0754 µM)					
CN(CCO)c1ccc2c(=O)n3c(nc2c1)C(=O)c1cc(F)ccc1-3 [Example 68]	3.73 ng/mL (≈ 0.011 µM)	3.86 ng/mL (≈ 0.0114 µM)		7.86 ng/mL (≈ 0.0232 µM)		5.47 ng/mL (≈ 0.0161 µM)					
O=C1c2cc(F)ccc2-n2c1nc1c(F)cccc1c2=O [Example 19]	9.78 ng/mL (≈ 0.0344 µM)	1.58 ng/mL (≈ 0.00556 µM)	8.14 ng/mL (≈ 0.0286 µM)	2.57 ng/mL (≈ 0.00904 µM)	13.5 ng/mL (≈ 0.0476 µM)						
C=CCO/N=C/c1ccc2c(c1)C(=O)c1nc3ccncc3c(=O)n1-2 [Example 90]	6.14 ng/mL (≈ 0.0185 µM)	3.93 ng/mL (≈ 0.0118 µM)	15.6 ng/mL (≈ 0.0469 µM)	7.59 ng/mL (≈ 0.0228 µM)	16.3 ng/mL (≈ 0.0491 µM)	30 ng/mL (≈ 0.0904 µM)					
O=C1c2cc(Cl)ccc2-n2c1nc1ncccc1c2=O [Example 21]	2.3 ng/mL (≈ 0.00811 µM)	0.43 ng/mL (≈ 0.00152 µM)	1.28 ng/mL (≈ 0.00451 µM)	0.93 ng/mL (≈ 0.00328 µM)	0.926 ng/mL (≈ 0.00326 µM)		most effective				
O=C1c2cc(Br)ccc2-n2c1nc1cnccc1c2=O [Example 59]	24 ng/mL (≈ 0.0732 µM)	2.47 ng/mL (≈ 0.00753 µM)	17.7 ng/mL (≈ 0.054 µM)	4.37 ng/mL (≈ 0.0133 µM)	37.9 ng/mL (≈ 0.115 µM)						
O=C1c2cc(Br)ccc2-n2c1nc1ccncc1c2=O [Example 39]	46 ng/mL (≈ 0.14 µM)	1.88 ng/mL (≈ 0.00573 µM)	1.87 ng/mL (≈ 0.0057 µM)	3.57 ng/mL (≈ 0.0109 µM)	3.57 ng/mL (≈ 0.0109 µM)	4.2 ng/mL (≈ 0.0128 µM)					
Cc1ccc2nc3n(c(=O)c2c1)-c1ccc(F)cc1C3=O [Example 11]	16.4 ng/mL (≈ 0.0585 µM)	2.8 ng/mL (≈ 0.00999 µM)	14.7 ng/mL (≈ 0.0524 µM)	4.9 ng/mL (≈ 0.0175 µM)	22.1 ng/mL (≈ 0.0787 µM)						
COc1cccc2c(=O)n3c(nc12)C(=O)c1cc(I)ccc1-3 [Example 27]	41.1 ng/mL (≈ 0.102 µM)	1.79 ng/mL (≈ 0.00443 µM)		3.01 ng/mL (≈ 0.00745 µM)							
O=C1c2cc(Cl)ccc2-n2c1nc1cc(SCCO)ccc1c2=O [Example 86]	2.08 ng/mL (≈ 0.00579 µM)	2.3 ng/mL (≈ 0.00641 µM)	1.91 ng/mL (≈ 0.00532 µM)	3.6 ng/mL (≈ 0.01 µM)	3.63 ng/mL (≈ 0.0101 µM)						
O=C1c2cc(F)ccc2-n2c1nc1cc(F)ccc1c2=O [Example 12]	9.74 ng/mL (≈ 0.0343 µM)	1.6 ng/mL (≈ 0.00563 µM)	5.27 ng/mL (≈ 0.0186 µM)	4.9 ng/mL (≈ 0.0172 µM)	8.54 ng/mL (≈ 0.03 µM)	12 ng/mL (≈ 0.042 µM)		16.249 ng/mL and 19.374 ng/mL	16.914 ng/mL and 11.113 ng/mL	5.787 ng/mL and 6.539 ng/mL	14.239 ng/mL and 11.005 ng/mL
O=C1c2cc(OC(F)(F)F)ccc2-n2c1nc1ccncc1c2=O [Example 63]	1.16 ng/mL (≈ 0.00349 µM)	1.5 ng/mL (≈ 0.0045 µM)	1.23 ng/mL (≈ 0.00369 µM)	3.16 ng/mL (≈ 0.00948 µM)	0.946 ng/mL (≈ 0.00284 µM)	1.97 ng/mL (≈ 0.0059 µM)	most effective				
CN(CCO)c1ccc2c(=O)n3c(nc2c1)C(=O)c1cc(Cl)ccc1-3 [Example 46]	24.4 ng/mL (≈ 0.0686 µM)	6.32 ng/mL (≈ 0.0178 µM)	23 ng/mL (≈ 0.0646 µM)	7.61 ng/mL (≈ 0.0214 µM)	42.6 ng/mL (≈ 0.12 µM)	66.4 ng/mL (≈ 0.187 µM)					
CCOC(=O)c1ccc2c(c1)C(=O)c1nc3ncccc3c(=O)n1-2 [Example 24]	7.78 ng/mL (≈ 0.0242 µM)	0.91 ng/mL (≈ 0.00283 µM)		2.01 ng/mL (≈ 0.00626 µM)	10.1 ng/mL (≈ 0.0314 µM)						
Cc1ncc2c(=O)n3c(nc2n1)C(=O)c1cc(Cl)ccc1-3 [Example 55]	5.48 ng/mL (≈ 0.0184 µM)	2.1 ng/mL (≈ 0.00703 µM)	2.3 ng/mL (≈ 0.00771 µM)	7.2 ng/mL (≈ 0.0241 µM)	11.2 ng/mL (≈ 0.0376 µM)	14.2 ng/mL (≈ 0.0476 µM)					
COC(c1ccc2c(c1)C(=O)c1nc3ccncc3c(=O)n1-2)C(C)C (stereo not drawn) [Example 73]	4.46 ng/mL (≈ 0.0133 µM)	3.75 ng/mL (≈ 0.0112 µM)	2.85 ng/mL (≈ 0.00851 µM)	5.4 ng/mL (≈ 0.0161 µM)	4.89 ng/mL (≈ 0.0146 µM)	10.5 ng/mL (≈ 0.0313 µM)					
O=C1c2cc(OC(F)(F)F)ccc2-n2c1nc1cc(F)ccc1c2=O [Example 78]	1.76 ng/mL (≈ 0.00504 µM)	0.86 ng/mL (≈ 0.00246 µM)	0.935 ng/mL (≈ 0.00267 µM)	0.93 ng/mL (≈ 0.00266 µM)	1.97 ng/mL (≈ 0.00561 µM)	3.3 ng/mL (≈ 0.00941 µM)	most effective				
N#CC(C#N)=c1c2cc(F)ccc2n2c(=O)c3ccccc3nc12 [Example 57]	62.2 ng/mL (≈ 0.198 µM)	10.6 ng/mL (≈ 0.0337 µM)	28.9 ng/mL (≈ 0.0921 µM)	20.3 ng/mL (≈ 0.0647 µM)	46.5 ng/mL (≈ 0.148 µM)	82.6 ng/mL (≈ 0.263 µM)					
O=C1c2cc(F)ccc2-n2c1nc1ccccc1c2=O [Example 91]		1.8 ng/mL (≈ 0.00676 µM)	5.52 ng/mL (≈ 0.0207 µM)	0.24 ng/mL (≈ 0.000901 µM)	9.06 ng/mL (≈ 0.034 µM)			9.941 ng/mL (≈ 0.0373 µM)		4.977 ng/mL (≈ 0.0187 µM)	10.137 ng/mL (≈ 0.0381 µM)
O=C1c2cc(OC(F)(F)F)ccc2-n2c1nc1cc(SCCO)ccc1c2=O [Example 87]	0.696 ng/mL (≈ 0.0017 µM)	3.51 ng/mL (≈ 0.0086 µM)		4.92 ng/mL (≈ 0.012 µM)		4.44 ng/mL (≈ 0.0109 µM)					
O=C1c2cc(F)ccc2-n2c1nc1ncccc1c2=O [Example 17]	4.21 ng/mL (≈ 0.0157 µM)	0.84 ng/mL (≈ 0.00314 µM)	2.12 ng/mL (≈ 0.00795 µM)	1.53 ng/mL (≈ 0.00573 µM)	4.93 ng/mL (≈ 0.0184 µM)	9.93 ng/mL (≈ 0.0372 µM)		8.002 ng/mL (≈ 0.0299 µM)			
O=C1c2cc(Cl)ccc2-n2c1nc1cc(F)ccc1c2=O [Example 45]		0.728 ng/mL (≈ 0.00242 µM)		1.28 ng/mL (≈ 0.00426 µM)		14.2 ng/mL (≈ 0.0471 µM)					
CN1CCN(c2ccc3c(=O)n4c(nc3c2)C(=O)c2cc(Cl)ccc2-4)CC1 [Example 58]	8.1 ng/mL (≈ 0.0213 µM)	2.73 ng/mL (≈ 0.00717 µM)		4.52 ng/mL (≈ 0.0119 µM)		17.3 ng/mL (≈ 0.0454 µM)					
